Measurements published in ChEMBL document CHEMBL3286136, “Discovery of camphor-derived pyrazolones as 11β-hydroxysteroid dehydrogenase type 1 inhibitors” (Bioorg Med Chem Lett, 2014).
In brackets after ≈: the same amount, converted by molar mass.

What was measured:
[1] = target: 11-beta-hydroxysteroid dehydrogenase 1 (Rattus norvegicus, UniProt P16232); experiment: Inhibition of rat 11betaHSD1 assessed as reduction of cortisone to cortisol by ELISA
[2] = Clearance in iv dosed rat; format: ADME, organism-based; conditions: in vivo
[3] = Cmax in rat at 20 mg/kg, po; format: ADME, organism-based; parameters: dose 20 mg/kg, route oral; conditions: in vivo
Cytochrome P450 3A4 = Cytochrome P450 3A4 (Homo sapiens, UniProt P08684); experiment: Inhibition of CYP3A4 (unknown origin); format: ADME
[4] = Tmax in po dosed rat; format: ADME, organism-based; conditions: in vivo
[5] = Half life in iv dosed rat; format: ADME, organism-based; conditions: in vivo
[6] = Kinetic aqueous solubility of the compound at pH 6.5; format: physicochemical; conditions: read-out: Kinetic_solubility
[7] = Clearance in human liver microsomes at 1 uM; format: ADME; conditions: read-out: CLH
[8] = Volume of distribution at steady state in iv dosed rat; format: ADME, organism-based; conditions: in vivo, read-out: Vdss
[9] = Effective permeability of the compound at pH 6.5 by PAMPA; format: physicochemical; conditions: read-out: Peff
[10] = Oral bioavailability in rat; format: ADME, organism-based; conditions: in vivo
[11] = Cmax in rat at 50 mg/kg, po; format: ADME, organism-based; parameters: dose 50 mg/kg, route oral; conditions: in vivo
Mus musculus [12] = experiment: Reduction in plasma cortisol level in db/db mouse at 150 mg/kg, po after 30 mins […] measured after 5.5 hrs relative to control; format: functional
hERG (KCNH2) = hERG (KCNH2) (Homo sapiens, UniProt Q12809); experiment: Inhibition of human ERG
Mus musculus [13] = experiment: Toxicity in db/db mouse assessed as sedative effect at 150 mg/kg, po after 13 days; format: organism-based; parameters: dose 150 mg/kg, route oral; conditions: in vivo, 312 h
[14] = target: 11-beta-hydroxysteroid dehydrogenase 1 (Homo sapiens, UniProt P28845); experiment: Inhibition of full-length human 11betaHSD1 expressed in HEK293 cells assessed as cortisol level by competitive ELISA; format: cell-based
11-beta-hydroxysteroid dehydrogenase 1 (Homo sapiens, UniProt P28845), sequence (P28845 whole entry): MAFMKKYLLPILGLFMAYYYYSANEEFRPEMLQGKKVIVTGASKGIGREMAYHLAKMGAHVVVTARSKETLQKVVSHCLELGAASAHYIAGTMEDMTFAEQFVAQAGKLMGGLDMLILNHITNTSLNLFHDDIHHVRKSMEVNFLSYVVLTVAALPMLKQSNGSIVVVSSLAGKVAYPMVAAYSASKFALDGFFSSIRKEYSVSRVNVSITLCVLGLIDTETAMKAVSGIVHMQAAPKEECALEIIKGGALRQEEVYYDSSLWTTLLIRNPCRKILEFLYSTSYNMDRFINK

Cytochrome P450 3A4, sequence (P08684 whole entry): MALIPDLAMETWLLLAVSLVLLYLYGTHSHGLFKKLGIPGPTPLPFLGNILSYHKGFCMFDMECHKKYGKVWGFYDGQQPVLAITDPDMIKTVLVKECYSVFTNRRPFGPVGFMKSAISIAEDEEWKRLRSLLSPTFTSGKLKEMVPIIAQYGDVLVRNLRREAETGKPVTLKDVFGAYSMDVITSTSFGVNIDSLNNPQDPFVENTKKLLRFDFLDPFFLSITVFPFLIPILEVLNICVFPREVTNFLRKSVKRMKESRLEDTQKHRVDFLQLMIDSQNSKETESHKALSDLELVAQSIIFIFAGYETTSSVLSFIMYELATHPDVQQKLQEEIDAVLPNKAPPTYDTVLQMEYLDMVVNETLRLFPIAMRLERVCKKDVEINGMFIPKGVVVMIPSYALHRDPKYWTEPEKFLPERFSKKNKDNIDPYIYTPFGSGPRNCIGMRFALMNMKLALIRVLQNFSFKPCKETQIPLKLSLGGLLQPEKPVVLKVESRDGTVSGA
11-beta-hydroxysteroid dehydrogenase 1 (Rattus norvegicus, UniProt P16232), sequence (P16232 whole entry): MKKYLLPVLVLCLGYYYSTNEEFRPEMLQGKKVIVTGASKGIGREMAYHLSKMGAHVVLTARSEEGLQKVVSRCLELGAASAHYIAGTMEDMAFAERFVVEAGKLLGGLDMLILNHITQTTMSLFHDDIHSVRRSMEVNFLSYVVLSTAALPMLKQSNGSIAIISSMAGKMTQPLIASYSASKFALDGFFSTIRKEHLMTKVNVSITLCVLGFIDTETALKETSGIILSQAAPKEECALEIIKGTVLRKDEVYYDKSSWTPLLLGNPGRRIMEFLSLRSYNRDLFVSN
hERG (KCNH2), sequence (Q12809 whole entry): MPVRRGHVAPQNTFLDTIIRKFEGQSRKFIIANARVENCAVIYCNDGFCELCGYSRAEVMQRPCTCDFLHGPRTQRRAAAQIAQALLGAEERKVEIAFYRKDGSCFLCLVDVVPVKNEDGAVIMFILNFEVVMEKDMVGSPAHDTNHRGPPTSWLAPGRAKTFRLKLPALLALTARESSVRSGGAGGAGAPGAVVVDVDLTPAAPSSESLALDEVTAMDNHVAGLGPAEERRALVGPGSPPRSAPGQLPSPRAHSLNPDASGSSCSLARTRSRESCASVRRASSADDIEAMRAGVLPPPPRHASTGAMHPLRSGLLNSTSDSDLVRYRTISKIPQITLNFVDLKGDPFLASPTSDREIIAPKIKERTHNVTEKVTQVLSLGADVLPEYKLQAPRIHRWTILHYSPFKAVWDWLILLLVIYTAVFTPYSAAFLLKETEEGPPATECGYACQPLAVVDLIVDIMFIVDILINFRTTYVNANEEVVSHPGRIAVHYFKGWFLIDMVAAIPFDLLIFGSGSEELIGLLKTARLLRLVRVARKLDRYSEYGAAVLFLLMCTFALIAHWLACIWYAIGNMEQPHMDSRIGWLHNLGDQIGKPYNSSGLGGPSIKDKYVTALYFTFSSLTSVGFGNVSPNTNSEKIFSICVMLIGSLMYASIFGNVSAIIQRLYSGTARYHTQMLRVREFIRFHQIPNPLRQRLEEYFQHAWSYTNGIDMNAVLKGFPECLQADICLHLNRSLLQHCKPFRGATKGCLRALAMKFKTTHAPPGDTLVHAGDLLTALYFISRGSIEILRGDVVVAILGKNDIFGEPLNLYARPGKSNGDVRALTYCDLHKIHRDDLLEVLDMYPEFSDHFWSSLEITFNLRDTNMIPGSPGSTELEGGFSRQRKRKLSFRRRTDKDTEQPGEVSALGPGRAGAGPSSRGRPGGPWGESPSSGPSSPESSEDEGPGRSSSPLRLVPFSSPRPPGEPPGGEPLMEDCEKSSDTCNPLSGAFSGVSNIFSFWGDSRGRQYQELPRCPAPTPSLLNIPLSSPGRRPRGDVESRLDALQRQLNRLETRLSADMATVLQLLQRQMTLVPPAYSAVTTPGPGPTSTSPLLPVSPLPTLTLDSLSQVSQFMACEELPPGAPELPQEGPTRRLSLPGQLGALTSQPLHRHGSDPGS

## Cn1c2c(c(=O)n1-c1ccccc1)[C@H]1CC[C@]2(C)C1(C)C
[1]
  IC50: 138 nM
[2]
  clearance: 25.7 mL/min/kg
[3]
  Cmax: 335 ng/mL
Cytochrome P450 3A4
  IC50: > 50000 nM
[4]
  Tmax: 0.5 h
[5]
  half-life: 1.2 h
[6]
  solubility kinetic: 169 µg/mL (≈ 598 µM)
[7]
  microsomal CLint at 1 µM: 3.6 µL/min/mg
[8]
  Vd: 1.4 L/kg
[9]
  Papp: 9.7 ×10⁻⁶ cm/s
[10]
  bioavailability: 9%

## Cn1c2c(c(=O)n1-c1ccccc1)[C@@H]1CC[C@@]2(C)C1(C)C
[1]
  IC50: 116 nM

## CCn1c2c(c(=O)n1-c1ccccc1)[C@H]1CC[C@]2(C)C1(C)C
[1]
  IC50: 18 nM

## CC1(C)[C@@H]2CC[C@@]1(C)c1c2c(=O)n(-c2ccccc2)n1Cc1ccccc1
[1]
  IC50: 16 nM
[2]
  clearance: 57.5 mL/min/kg
[4]
  Tmax: 3.2 h
[5]
  half-life: 0.9 h
[6]
  solubility kinetic: 171 µg/mL (≈ 477 µM)
[7]
  microsomal CLint at 1 µM: 645 µL/min/mg
[11]
  Cmax: 648 ng/mL
[8]
  Vd: 2.3 L/kg
[9]
  Papp: 8.8 ×10⁻⁶ cm/s
[10]
  bioavailability: 29%

## CCCn1c2c(c(=O)n1-c1ccccc1F)[C@H]1CC[C@]2(C)C1(C)C
[1]
  IC50: 110 nM

## CC(C)n1c2c(c(=O)n1-c1ccccc1F)[C@H]1CC[C@]2(C)C1(C)C
[1]
  IC50: 22 nM

## C=CCn1c2c(c(=O)n1-c1ccccc1F)[C@H]1CC[C@]2(C)C1(C)C
[1]
  IC50: 35 nM

## CC1(C)[C@@H]2CC[C@@]1(C)c1c2c(=O)n(-c2ccccc2F)n1Cc1ccccc1
[1]
  IC50: 12 nM

## Cn1c2c(c(=O)n1-c1ccccc1C(F)(F)F)[C@H]1CC[C@]2(C)C1(C)C
[1]
  IC50: 10 nM
[2]
  clearance: 31.8 mL/min/kg
[3]
  Cmax: 2150 ng/mL
Cytochrome P450 3A4
  IC50: 22600 nM
[4]
  Tmax: 0.7 h
[5]
  half-life: 1 h
[6]
  solubility kinetic: > 376 µg/mL
[7]
  microsomal CLint at 1 µM: 68 µL/min/mg
Mus musculus [12]
  inhibition (INH): 93%
hERG (KCNH2)
  IC20: > 30000 nM
[8]
  Vd: 1.2 L/kg
Mus musculus [13]
  Activity: Toxic
[9]
  Papp: 10.9 ×10⁻⁶ cm/s
[10]
  bioavailability: 109%

## CC1(C)[C@@H]2CC[C@@]1(C)c1c2c(=O)n(-c2ccc(F)cc2F)n1Cc1ccccc1
[1]
  IC50: 13 nM
[2]
  clearance: 29 mL/min/kg
Cytochrome P450 3A4
  IC50: 6100 nM
[4]
  Tmax: 2.3 h
[5]
  half-life: 0.8 h
[6]
  solubility kinetic: 82 µg/mL (≈ 208 µM)
[7]
  microsomal CLint at 1 µM: 582 µL/min/mg
Mus musculus [12]
  inhibition (INH): 93%
hERG (KCNH2)
  IC20: > 30000 nM
[11]
  Cmax: 2280 ng/mL
[8]
  Vd: 1 L/kg
[9]
  Papp: 11.2 ×10⁻⁶ cm/s
[10]
  bioavailability: 35%

## CC1(C)[C@@H]2CC[C@@]1(C)c1c2c(=O)n(-c2ccc(F)cc2F)n1CCc1ccccc1
[1]
  IC50: 18 nM

## Cn1c2c(c(=O)n1-c1cc(Cl)ccc1Cl)[C@H]1CC[C@]2(C)C1(C)C
[1]
  IC50: 5 nM
[2]
  clearance: 40.2 mL/min/kg
Cytochrome P450 3A4
  IC50: > 25000 nM
[4]
  Tmax: 0.5 h
[5]
  half-life: 5.4 h
[6]
  solubility kinetic: 50 µg/mL (≈ 142 µM)
[7]
  microsomal CLint at 1 µM: 170 µL/min/mg
Mus musculus [12]
  inhibition (INH): 93%
hERG (KCNH2)
  IC20: 51000 nM
[11]
  Cmax: 280 ng/mL
[8]
  Vd: 4.6 L/kg
Mus musculus [13]
  Activity: Non-toxic
[9]
  Papp: 6.7 ×10⁻⁶ cm/s
[10]
  bioavailability: 71%

## Cn1c2c(c(=O)n1-c1c(Cl)cccc1Cl)[C@H]1CC[C@]2(C)C1(C)C
[1]
  IC50: > 11000 nM
[14]
  IC50: > 22000 nM

## Cn1c2c(c(=O)n1-c1cccc(I)c1)[C@H]1CC[C@]2(C)C1(C)C
[1]
  IC50: 4 nM

## COc1c2c(nn1-c1ccc(C)cc1)[C@]1(C)CC[C@H]2C1(C)C
[1]
  IC50: > 11000 nM
[14]
  IC50: > 22000 nM

## Cn1c2c(c(=O)n1-c1ccccn1)[C@H]1CC[C@]2(C)C1(C)C
[1]
  IC50: > 5000 nM

## Cn1c2c(c(=O)n1-c1ccccc1Cl)[C@H]1CC[C@]2(C)C1(C)C
[1]
  IC50: 39 nM
[2]
  clearance: 29.3 mL/min/kg
Cytochrome P450 3A4
  IC50: > 50000 nM
[4]
  Tmax: 1 h
[5]
  half-life: 4.9 h
[6]
  solubility kinetic: > 625 µg/mL
[7]
  microsomal CLint at 1 µM: 197 µL/min/mg
hERG (KCNH2)
  IC20: > 30000 nM
[11]
  Cmax: 2840 ng/mL
[8]
  Vd: 2.7 L/kg
[9]
  Papp: 9.9 ×10⁻⁶ cm/s
[10]
  bioavailability: 29%

## COc1cccc(-n2c(=O)c3c(n2C)[C@]2(C)CC[C@H]3C2(C)C)c1
[1]
  IC50: 41 nM

## Cn1c2c(c(=O)n1Cc1ccccc1)[C@H]1CC[C@]2(C)C1(C)C
[1]
  IC50: 77 nM

## Cn1c2c(c(=O)n1Cc1ccccc1C(F)(F)F)[C@H]1CC[C@]2(C)C1(C)C
[1]
  IC50: 10 nM
[2]
  clearance: 34.8 mL/min/kg
Cytochrome P450 3A4
  IC50: 4800 nM
[4]
  Tmax: 0.8 h
[5]
  half-life: 3 h
[6]
  solubility kinetic: 246 µg/mL (≈ 675 µM)
[7]
  microsomal CLint at 1 µM: 604 µL/min/mg
[11]
  Cmax: 294 ng/mL
[8]
  Vd: 2 L/kg
[9]
  Papp: 8.2 ×10⁻⁶ cm/s
[10]
  bioavailability: 5%

## Cc1ccccc1-c1cccc(Cn2c(=O)c3c(n2C)[C@]2(C)CC[C@H]3C2(C)C)c1
[1]
  IC50: 21 nM
